PubChem BioAssay AID256 (DTP/NCI, 2004)
Toxic doses and inconclusive results are not listed. How the source made its calls: active means survival T/C of 150% or more; inactive means T/C below 125% in these data. Positions of bridges follow the written chain, without caps; N, C: chain ends. Non-standard residues stand in square brackets, D forms with d. Residues, ends and D or L forms follow the SMILES beside them. Chains are numbered I, II in the order given. *: point of attachment. Quinoxaline2carbonyl = O=C(c1cnc2ccccc2n1)*; NMeV = CN[CH](C(=O)O)C(C)C; NMeC = CN[CH](CS)C(=O)O

System: CD2F1 mice, L1210 leukemia ip, survival T/C
Assay: NCI In Vivo Anticancer Drug Screen. Data for tumor model L1210 Leukemia (intraperitoneal) in CD2F1 (CDF1) mice
Settings: higher = longer survival
How it was run: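 In this screen, transplantable tumors were grown in mice given either the compound or its vehicle. Results were expressed as the treated measurement relative to the control measurement.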

[1] = endpoint: mean survival time, dose: 25.0 mg/kg/injection, schedule: Q04DX002 (ip), vehicle: saline with Tween-80
[2] = endpoint: mean survival time, dose: 50.0 mg/kg/injection, schedule: Q04DX002 (ip), vehicle: saline with Tween-80
[3] = endpoint: mean survival time, dose: 100.0 mg/kg/injection, schedule: Q04DX002 (ip), vehicle: saline with Tween-80
[4] = endpoint: mean survival time, dose: 200.0 mg/kg/injection, schedule: Q04DX002 (ip), vehicle: saline with Tween-80
[5] = endpoint: mean survival time, dose: 400.0 mg/kg/injection, schedule: Q04DX002 (ip), vehicle: saline with Tween-80
[6] = endpoint: mean survival time, dose: 100.0 mg/kg/injection, schedule: Q01DX009 (ip), vehicle: saline with Tween-80
[7] = endpoint: mean survival time, dose: 200.0 mg/kg/injection, schedule: Q01DX009 (ip), vehicle: saline with Tween-80
[8] = endpoint: mean survival time, dose: 100.0 mg/kg/injection, schedule: Q04DX003 (ip), vehicle: saline with Tween-80
[9] = endpoint: mean survival time, dose: 400.0 mg/kg/injection, schedule: Q01DX009 (ip), vehicle: saline with Tween-80
[10] = endpoint: mean survival time, dose: 200.0 mg/kg/injection, schedule: Q04DX003 (ip), vehicle: saline with Tween-80
[11] = endpoint: mean survival time, dose: 400.0 mg/kg/injection, schedule: Q04DX003 (ip), vehicle: saline with Tween-80
[12] = endpoint: mean survival time, dose: 25.0 mg/kg/injection, schedule: Q01DX009 (ip), vehicle: Klucel (hydroxypropylcellulose) (HPC)
[13] = endpoint: mean survival time, dose: 50.0 mg/kg/injection, schedule: Q01DX009 (ip), vehicle: Klucel (hydroxypropylcellulose) (HPC)

Measured: T/C

Cc1cccc(C2=N/C(=C\c3ccc(N(C)C)cc3)C(=O)O2)c1
inactive: [1] 102 % of control | [2] 91 % of control | [3] 94 % of control | [4] 95 % of control | [5] 95 % of control

Clc1ccccc1P(c1ccccc1)c1ccccc1
inactive: [1] 100 % of control | [2] 100 % of control | [3] 100 % of control

C1=CC2CC3(OCCO3)C2C1 (centres undefined)
inactive: [6] 98 % of control | [7] 98 % of control

Cn1cc(C(O)CN2CCCCC2)c2ccccc21 (centres undefined)
inactive: [8] 93 % of control

CCN(CC)C(=O)SCCSC(=O)N(CC)CC
inactive: [1] 96 % of control | [2] 104 % of control | [3] 101 % of control | [4] 91 % of control | [5] 95 % of control

Cc1cc(N(CCCOS(C)(=O)=O)CCCOS(C)(=O)=O)ccc1C=Nc1ccc2ccccc2c1
inactive: endpoint: mean survival time, dose: 25.0 mg/kg/injection, schedule: Q01DX009 (ip), vehicle: saline with Tween-80 93 % of control | endpoint: mean survival time, dose: 50.0 mg/kg/injection, schedule: Q01DX009 (ip), vehicle: saline with Tween-80 93 % of control | [6] 88 % of control

COc1ccc2c3c(ccc2c1)C1CCC(=O)C1(C)CC3 (centres undefined)
inactive: [6] 102 % of control | [7] 96 % of control | [9] 98 % of control

Cc1ccc(S(=O)(=O)N(CCC(=O)O)c2ccccc2)cc1
inactive: [8] 101 % of control | [10] 97 % of control | [11] 98 % of control

Cc1ccc(S(=O)(=O)NNC(=O)c2ccccc2C(=O)O)cc1
inactive: [2] 96 % of control | [3] 100 % of control | [4] 100 % of control | [5] 96 % of control

C1=C[N-]c2c3c(ccc2=C1)=CC=C[N-]3.C1=C[N-]c2c3c(ccc2=C1)=CC=C[N-]3.[Cl][Ru][Cl]
inactive: endpoint: mean survival time, dose: 3.13 mg/kg/injection, schedule: Q04DX003 (ip), vehicle: water 90 % of control | endpoint: mean survival time, dose: 6.25 mg/kg/injection, schedule: Q04DX003 (ip), vehicle: water 90 % of control | endpoint: mean survival time, dose: 12.5 mg/kg/injection, schedule: Q04DX003 (ip), vehicle: water 88 % of control

CSc1[nH]c2ncnc(Cl)c2c1C#N
inactive: endpoint: mean survival time, dose: 75.0 mg/kg/injection, schedule: Q01DX001 (ip), vehicle: saline 100 % of control | endpoint: mean survival time, dose: 150.0 mg/kg/injection, schedule: Q01DX001 (ip), vehicle: saline 94 % of control

O=C(Nc1ccc(F)cc1)Nc1cccc2ccccc12
inactive: [8] 96 % of control | [10] 96 % of control | [11] 111 % of control

COC(=O)/C(Br)=C/N(Cc1ccccc1)Cc1ccccc1
inactive: endpoint: mean survival time, dose: 100.0 mg/kg/injection, schedule: Q01DX009 (ip), vehicle: saline sonified 101 % of control | [8] 94 % of control | endpoint: mean survival time, dose: 200.0 mg/kg/injection, schedule: Q01DX009 (ip), vehicle: saline sonified 101 % of control | [10] 93 % of control | endpoint: mean survival time, dose: 400.0 mg/kg/injection, schedule: Q01DX009 (ip), vehicle: saline sonified 103 % of control | [11] 96 % of control

O=C(O)C1(NO)CCCCC1
inactive: endpoint: mean survival time, dose: 12.5 mg/kg/injection, schedule: Q01DX009 (ip), vehicle: Klucel (hydroxypropylcellulose) (HPC) 102 % of control | [12] 101 % of control | [13] 103 % of control | endpoint: mean survival time, dose: 100.0 mg/kg/injection, schedule: Q01DX009 (ip), vehicle: Klucel (hydroxypropylcellulose) (HPC) 100 % of control | endpoint: mean survival time, dose: 200.0 mg/kg/injection, schedule: Q01DX009 (ip), vehicle: Klucel (hydroxypropylcellulose) (HPC) 97 % of control | endpoint: mean survival time, dose: 400.0 mg/kg/injection, schedule: Q01DX009 (ip), vehicle: Klucel (hydroxypropylcellulose) (HPC) 102 % of control

CCOC(=O)c1cn(C)c2c1C(O)=C(C(=O)OC)CC(=O)N2
inactive: endpoint: median survival time, dose: 25.0 mg/kg/injection, schedule: Q01DX009 (ip), vehicle: saline with Tween-80 90 % of control | endpoint: median survival time, dose: 50.0 mg/kg/injection, schedule: Q01DX009 (ip), vehicle: saline with Tween-80 98 % of control | endpoint: median survival time, dose: 100.0 mg/kg/injection, schedule: Q01DX009 (ip), vehicle: saline with Tween-80 92 % of control | endpoint: median survival time, dose: 200.0 mg/kg/injection, schedule: Q01DX009 (ip), vehicle: saline with Tween-80 94 % of control | endpoint: median survival time, dose: 400.0 mg/kg/injection, schedule: Q01DX009 (ip), vehicle: saline with Tween-80 90 % of control

O=C(CBr)c1cc(-c2ccc(Cl)cc2)nc2c(Cl)cc(Cl)cc12
inactive: endpoint: mean survival time, dose: 100.0 mg/kg/injection, schedule: Q01DX001 (ip), vehicle: saline 91 % of control | endpoint: mean survival time, dose: 200.0 mg/kg/injection, schedule: Q01DX001 (ip), vehicle: saline 97 % of control | endpoint: mean survival time, dose: 400.0 mg/kg/injection, schedule: Q01DX001 (ip), vehicle: saline 103 % of control

O=C(CCCC(Br)c1ccccc1)c1ccccc1 (centres undefined)
inactive: endpoint: mean survival time, dose: 100.0 mg/kg/injection, schedule: Q01DX001 (ip), vehicle: saline with Tween-80 90 % of control | endpoint: mean survival time, dose: 400.0 mg/kg/injection, schedule: Q01DX001 (ip), vehicle: saline with Tween-80 95 % of control

O=C(CBr)Nc1ccc2[nH]c3cnccc3c2c1
inactive: [3] 101 % of control | [4] 104 % of control | [5] 97 % of control

CS(=O)(=O)OCCN(CCOS(C)(=O)=O)c1ccc([N+](=O)[O-])cc1
inactive: endpoint: mean survival time, dose: 12.5 mg/kg/injection, schedule: Q01DX010 (ip), vehicle: saline 100 % of control | endpoint: mean survival time, dose: 25.0 mg/kg/injection, schedule: Q01DX010 (ip), vehicle: saline 100 % of control | endpoint: mean survival time, dose: 50.0 mg/kg/injection, schedule: Q01DX010 (ip), vehicle: saline 115 % of control | endpoint: mean survival time, dose: 100.0 mg/kg/injection, schedule: Q01DX010 (ip), vehicle: saline 106 % of control

COC1C2CCC1N(C)CC2 (centres undefined)
inactive: endpoint: mean survival time, dose: 37.5 mg/kg/injection, schedule: Q04DX002 (ip), vehicle: saline with Tween-80 106 % of control | endpoint: mean survival time, dose: 75.0 mg/kg/injection, schedule: Q04DX002 (ip), vehicle: saline with Tween-80 98 % of control | endpoint: mean survival time, dose: 150.0 mg/kg/injection, schedule: Q04DX002 (ip), vehicle: saline with Tween-80 117 % of control | endpoint: mean survival time, dose: 300.0 mg/kg/injection, schedule: Q04DX002 (ip), vehicle: saline with Tween-80 95 % of control

C=CCNC(=O)C[n+]1cccc(C(=O)NC)c1
inactive: endpoint: mean survival time, dose: 100.0 mg/kg/injection, schedule: Q04DX003 (ip), vehicle: saline 100 % of control | endpoint: mean survival time, dose: 200.0 mg/kg/injection, schedule: Q04DX003 (ip), vehicle: saline 102 % of control | endpoint: mean survival time, dose: 400.0 mg/kg/injection, schedule: Q04DX003 (ip), vehicle: saline 102 % of control

CC12CCCCC1=CC(=O)CC2 (centres undefined)
inactive: [6] 97 % of control | [3] 96 % of control | [7] 102 % of control | [4] 112 % of control | [5] 104 % of control

O=S(=O)(O)c1ccc(N=Nc2ccc(O)cc2)cc1
inactive: endpoint: mean survival time, dose: 25.0 mg/kg/injection, schedule: Q04DX003 (ip), vehicle: saline with Tween-80 97 % of control | endpoint: mean survival time, dose: 50.0 mg/kg/injection, schedule: Q04DX003 (ip), vehicle: saline with Tween-80 107 % of control | [8] 100 % of control

CC1NC(=O)C(NC(=O)c2cnc3ccccc3n2)COC(=O)C(C(C)C)N(C)C(=O)C2CSSCC(C(=O)N(C)C(C(C)C)C(=O)OCC(NC(=O)c3cnc4ccccc4n3)C(=O)NC(C)C(=O)N2C)N(C)C1=O (centres undefined) (I: Quinoxaline2carbonyl-SA[NMeC][NMeV] / II: Quinoxaline2carbonyl-SA[NMeC][NMeV]; ester I:1-II:C, I:C-II:1; disulfide I:3-II:3; configuration not given here)
inactive: endpoint: mean survival time, dose: 11.2 micrograms/kg/injection, schedule: Q01DX009 (ip), vehicle: Klucel (hydroxypropylcellulose) (HPC) 101 % of control | endpoint: mean survival time, dose: 22.5 micrograms/kg/injection, schedule: Q01DX009 (ip), vehicle: Klucel (hydroxypropylcellulose) (HPC) 103 % of control | endpoint: mean survival time, dose: 45.0 micrograms/kg/injection, schedule: Q01DX009 (ip), vehicle: Klucel (hydroxypropylcellulose) (HPC) 105 % of control | endpoint: mean survival time, dose: 50.0 micrograms/kg/injection, schedule: Q01DX009 (ip), vehicle: other 114 % of control | endpoint: mean survival time, dose: 90.0 micrograms/kg/injection, schedule: Q01DX009 (ip), vehicle: Klucel (hydroxypropylcellulose) (HPC) 105 % of control | endpoint: mean survival time, dose: 180.0 micrograms/kg/injection, schedule: Q01DX009 (ip), vehicle: Klucel (hydroxypropylcellulose) (HPC) 100 % of control | endpoint: mean survival time, dose: 200.0 micrograms/kg/injection, schedule: Q01DX009 (ip), vehicle: other 115 % of control

O=C1CC2/C(=[N+](/[O-])O)C=C([N+](=O)[O-])C(C1C(=O)Nc1ccccc1)C2[N+](=O)[O-] (centres undefined)
inactive: [3] 110 % of control | [4] 98 % of control | [5] 110 % of control

NC(=O)c1nn(C2OC(CO)C(O)C2O)c2ncnc(N)c12 (centres undefined)
active: [12] 207 % of control | [13] 200 % of control

O=C(O)CSc1ccn(Cc2ccccc2)c1
inactive: [6] 94 % of control | [8] 106 % of control | [7] 88 % of control | [10] 98 % of control | [9] 88 % of control | [11] 98 % of control
